Values joined by “and” are separate entries in the source; they are usually repeats but may differ in a detail not shown here. Equal entries are not always repeated.
molecular target: T1, Corticotropin-releasing factor receptor 1 (Homo sapiens, UniProt P34998)
T1 sequence (P34998 whole entry): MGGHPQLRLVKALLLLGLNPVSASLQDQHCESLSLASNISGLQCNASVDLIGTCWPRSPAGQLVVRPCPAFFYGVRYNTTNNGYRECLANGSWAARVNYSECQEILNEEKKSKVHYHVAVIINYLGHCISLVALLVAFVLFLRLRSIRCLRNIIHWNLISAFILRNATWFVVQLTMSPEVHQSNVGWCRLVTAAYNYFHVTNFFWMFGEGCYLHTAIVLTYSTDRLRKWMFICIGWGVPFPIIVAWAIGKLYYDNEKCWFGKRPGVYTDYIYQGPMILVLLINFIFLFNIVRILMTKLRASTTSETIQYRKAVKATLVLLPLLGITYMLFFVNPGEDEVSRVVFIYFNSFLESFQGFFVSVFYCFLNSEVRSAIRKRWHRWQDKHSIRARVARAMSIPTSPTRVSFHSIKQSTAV

Compound | Ki
CCC(CC)Nc1cc(C)nc2c(-c3ccc(OC)cc3C)c(C)nn12 | 0.4 nM
CCC(COC)n1nnc2c(Nc3ccc(OC)cc3C)nc(C)cc21 (stereo unspecified) | 6.8 nM and 4.9 nM
H-DLTFHLLREMLEMAKAEQEAEQAALNRLLLEEA-NH2 [NSC_0] | > 1000 nM

Second part, the compound after the results:

Ki | Compound
1.2 nM and 0.4 nM | CCCCN(CC)c1nc(C)nc2c1c(C)cn2-c1c(C)cc(C)cc1C
2.8 nM | COCC(COC)Nc1nc(C)nc2c(-c3ccc(Cl)cc3Cl)c(C)nn12 [DMP696]
3.3 nM and 23.1 nM | CC[C@H](C)[C@H](NC(=O)[C@H](CC(=O)O)NC(=O)[C@H](CC(C)C)NC(=O)[C@H](CC(C)C)NC(=O)[C@H](CCCCN)NC(=O)[C@H](CCCN=C(N)N)NC(=O)[C@H](CC(N)=O)NC(=O)[C@H](CO)NC(=O)[C@H](Cc1cnc[nH]1)NC(=O)[C@H](C)NC(=O)[C@H](CCC(N)=O)NC(=O)[C@H](CCC(N)=O)NC(=O)[C@H](C)NC(=O)[C@H](CC(C)C)NC(=O)[C@H](CCC(N)=O)NC(=O)[C@H](CC(=O)O)NC(=O)[C@H](C)NC(=O)[C@H](CCCCN)NC(=O)[C@@H](NC(=O)[C@H](CCSC)NC(=O)[C@H](CCC(=O)O)NC(=O)[C@H](CC(C)C)NC(=O)[C@@H](NC(=O)[C@H](CCC(=O)O)NC(=O)[C@H](CCCN=C(N)N)NC(=O)[C@H](CC(C)C)NC(=O)[C@H](CC(C)C)NC(=O)[C@H](Cc1cnc[nH]1)NC(=O)[C@H](Cc1ccccc1)NC(=O)[C@@H](NC(=O)[C@H](CC(C)C)NC(=O)[C@H](CC(=O)O)NC(=O)[C@H](CC(C)C)NC(=O)[C@H](CO)NC(=O)[C@@H](NC(=O)[C@@H]1CCCN1C(=O)[C@@H]1CCCN1C(=O)[C@H](CCC(=O)O)NC(=O)[C@H](CCC(N)=O)NC(=O)[C@@H](N)CO)[C@@H](C)CC)[C@@H](C)O)C(C)C)[C@@H](C)O)C(=O)N[C@@H](C)C(N)=O [NSC_0]

From BindingDB's records for doi:10.1124/jpet.102.046128 (Bristol-Myers Squibb Pharmaceuticals Research Institute, 2003)
